Activity calls are given as the source filed them. How the calls were made is not given here.
target: Ubiquitin-conjugating enzyme E2 N (Homo sapiens) (UniProt P61088); experiment: UBE2N binders by NMR, biophysical, purified protein (AID 1552); conditions: NMR binding to purified UBE2N
Sequence (P61088 whole entry, looked up): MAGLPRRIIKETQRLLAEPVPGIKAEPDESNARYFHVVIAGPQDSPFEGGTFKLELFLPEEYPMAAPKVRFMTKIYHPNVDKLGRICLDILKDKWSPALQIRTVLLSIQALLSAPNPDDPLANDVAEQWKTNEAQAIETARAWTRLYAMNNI

SMILES	Kd
N#Cc1cnn(-c2ccc(Cl)cc2)c1N	> 4 mM (inactive)
O=C1C2CC=CCC2C(=O)N1c1cccc(O)c1 (stereo unspecified)	> 4 mM (inactive)
Cc1n[nH]c(C)c1-c1ccccc1C(=O)O	> 4 mM (inactive)
O=C(c1ccco1)N1CCNCC1	> 4 mM (inactive)
O=C(O)CCC(=O)Nc1ccccn1	> 4 mM (inactive)
C=C1C2CC[C@@]3(C)[C@H](c4ccoc4)OC(=O)C[C@]13O[C@H]1CC(=O)C(C)(C)[C@H](C(O)C(=O)OC)[C@@]21C (stereo partly specified)	> 4 mM (inactive)
COC(CC(=O)O)c1nc2ccccc2s1 (stereo unspecified)	> 4 mM (inactive)
Cc1c(N=Cc2ccc[nH]2)c(=O)n(-c2ccccc2)n1C	> 4 mM (inactive)
Cn1cnc2cc(NC(=O)c3ccco3)ccc21	> 4 mM (inactive)
CC(=O)c1nnc2cc(C)nn2c1C	> 4 mM (inactive)
c1csc(-c2nn[nH]n2)c1	> 4 mM (inactive)
CC1=CC(=O)C2C(C)(C)CCC[C@]2(C)[C@@]1(O)CCc1ccoc1 (stereo partly specified)	> 4 mM (inactive)
COC(=O)[C@H]1[C@H]2C[C@H]3c4[nH]c5ccccc5c4CCN3C[C@H]2CC[C@@H]1O	> 4 mM (inactive)
Cc1ccc(NC(=O)C2CCCNC2=O)nc1 (stereo unspecified)	> 4 mM (inactive)
CCOC(=O)c1cc2ccccc2oc1=O	> 4 mM (inactive)
COc1ccc2c(c1)OC1(O)COc3cc(OC)c(OC)cc3C1=C2 (stereo unspecified)	> 4 mM (inactive)
NC(=O)CCN1C(=O)c2ccccc2C1=O	> 4 mM (inactive)
O=C(O)c1ccc2[nH]c3c(c2c1)CSCC3	> 4 mM (inactive)
CCNC(=O)CC[C@H](N)C(=O)O	> 4 mM (inactive)

SMILES	Kd
Cc1[nH]c(=O)[nH]c(=O)c1N1CCOCC1	> 4 mM (inactive)
COc1ccc(C2(CN)CCOCC2)cc1OC	> 4 mM (inactive)
O=C(Nc1nncs1)c1c(F)cccc1F	> 4 mM (inactive)
CCN1C(=O)c2c(C)nc3ccccc3c2C1=O	> 4 mM (inactive)
COc1cc(/C=C/C(=O)O)ccc1O	> 4 mM (inactive)
O=C1CCCc2c(O)cccc21	> 4 mM (inactive)
NC(=O)CC1Sc2ccccc2NC1=O (stereo unspecified)	> 4 mM (inactive)
Cc1ccc(S(=O)(=O)CC(=O)N2CCCC2)cc1	> 4 mM (inactive)
CC1(C)C=CC(=O)[C@@]2(C)C1CC(=O)[C@]1(C)C2CC[C@@]2(C)[C@H](c3ccoc3)OC(=O)C3OC321 (stereo partly specified)	> 4 mM (inactive)
Cn1ccnc1SCc1cc(=O)[nH]c2ccccc12	> 4 mM (inactive)
Cc1nnsc1C(=O)Nc1ccccc1[N+](=O)[O-]	> 4 mM (inactive)
C/C=C(/C)C(=O)O[C@H]1CC[C@@]2(C)[C@@H]3CC[C@H]4[C@]5(O)C[C@H](O)[C@@]6(O)[C@@H](CN7C[C@@H](C)CC[C@H]7[C@@]6(C)O)[C@]5(O)C[C@@]42OC13O	> 4 mM (inactive)
Nc1nnc(SCc2ccc(F)cc2Cl)s1	> 4 mM (inactive)
O=C(O)CSCC(=O)Nc1cccc(O)c1	> 4 mM (inactive)
NC(=O)CN1CC(=O)NC(=O)C1	> 4 mM (inactive)
Cc1occc1C(=O)N1CCN(S(C)(=O)=O)CC1	> 4 mM (inactive)
CC(=O)O[C@]1(C)CC[C@@]23CC1C(C)(C)[C@@H]2CC[C@H]3C	> 4 mM (inactive)
Nc1nc(-c2ccccc2)cc(=O)[nH]1	> 4 mM (inactive)
Cc1nn(-c2ccccc2)nc1CN	> 4 mM (inactive)

SMILES	Kd
COc1ccc(/C=C/c2cc(O)cc(O)c2)cc1	> 4 mM (inactive)
O=C(c1nc2ncccn2n1)N1CCc2ccccc2C1	> 4 mM (inactive)
Cc1nc2ccccc2c2c1C(=O)N(N)C2=O	> 4 mM (inactive)
c1ccc(SCc2nc(-c3ccccn3)no2)cc1	> 4 mM (inactive)
O=c1[nH]c(=O)c2[nH]cnc2[nH]1	> 4 mM (inactive)
C[C@@H]1OC(O[C@H]2C(O[C@H]3CC[C@@]4(C)C(CC[C@]5(C)C4CC=C4C6CC(C)(C)CC[C@]6(C(=O)O)CC[C@]45C)[C@]3(C)CO)OC[C@H](O)[C@@H]2O)[C@H](O)[C@H](O)[C@H]1O (stereo partly specified)	> 4 mM (inactive)
C[N+](C)(C)CC(=O)[O-]	> 4 mM (inactive)
c1ccc(CCc2nc(-c3cccnc3)no2)cc1	> 4 mM (inactive)
S=C(c1cccnc1)N1CCOCC1	> 4 mM (inactive)
CCCn1c(S(=O)(=O)O)nc2ccccc21	> 4 mM (inactive)
O=C(NC1CCS(=O)(=O)C1)C1CCCCC1 (stereo unspecified)	> 4 mM (inactive)
CC(=O)Nc1ccc(-c2nc(C)c(C(C)=O)n2O)cc1	> 4 mM (inactive)
COc1ccc(O)c(-c2cn[nH]c2-c2cccs2)c1	> 4 mM (inactive)
Nc1oncc1-c1ccccn1	> 4 mM (inactive)
N/C(=N/S(=O)(=O)c1cccs1)c1ccccc1	> 4 mM (inactive)
O=C1CC(=O)N(c2cccc(Cl)c2)N1	> 4 mM (inactive)
c1ccc(Cc2nnc3sc(-c4ccccn4)nn23)cc1	> 4 mM (inactive)
CC(=O)c1cccc(NC(=O)C=C(C)C)c1	> 4 mM (inactive)

Reference: PubChem BioAssay AID1552 (Sanford-Burnham Center for Chemical Genomics, 2009)
